Laboratory results taken from ChEMBL document CHEMBL1158687, “A dihydroflavonol glucoside from Commiphora africana that mediates DNA strand scission” (J Nat Prod, 2005).
The source made the active and inactive calls. The rule behind the calls is not given here.

What was measured:
Escherichia coli [1] = experiment: Induction of strand scission in pBR322 DNA in presence of ferrous ion
Escherichia coli [2] = experiment: Induction of strand scission in pBR322 DNA assessed as formation of linear duplex and nicked form at 100 uM in presence of copper
Escherichia coli [3] = experiment: Induction of strand scission in pBR322 DNA assessed as conversion from supercoiled form to nicked circular form at 50 uM in presence of copper
Escherichia coli [4] = experiment: Induction of strand scission in pBR322 DNA in presence of copper

Activity (Escherichia coli [1]): inactive | Activity (Escherichia coli [2]): Active | Activity (Escherichia coli [3]): 62% | Activity (Escherichia coli [4]): Dose-dependent effect
SMILES: CC(C)=CCc1c(O[C@@H]2O[C@H](CO)[C@@H](O)[C@H](O)[C@H]2O)cc(O)c2c1O[C@H](c1ccc(O)cc1)[C@@H](O)C2=O
